Test results published in publication PMC7160673, “A Degenerate Peptide Library Approach to Reveal Sequence Determinants of Methyllysine-Driven Protein Interactions” (Frontiers in Cell and Developmental Biology, 2020).

Columns and labels:
Type in all cases: binding
MPP8 chromo = target: T1, MPP8 chromo (Homo sapiens, UniProt Q99549); experiment: Histone peptide microarray, MPP8 chromo; details: normalized histone peptide array signal, hits; hybridization with 1 M MPP8 chromo (so in the source); two subarrays
T1 construct: 50-118; made in house; host or cells: E. coli BL21
T1 sequence (Q99549 50-118): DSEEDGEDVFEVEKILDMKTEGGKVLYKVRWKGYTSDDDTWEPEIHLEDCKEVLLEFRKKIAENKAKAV
Protocol: (§1) Peptide microarrays were fabricated using an Aushon 2470 microarrayer and used as described ([Cornett et al., 2017]) with the following modifications. Protein and antibody hybridization steps were performed in buffer containing 25 mM HEPES pH 7.5, 100 mM NaCl, 0.5% BSA (w/v), and 0.1% NP-40. Slides were washed 3 × 5 min in PBS supplemented with 0.1% Tween-20 between each hybridization step. Antibodies used were primary anti-GST (Sigma #7781, 1:2,000 dilution) and an AlexaFluor 647-labeled secondary antibody (Life Technologies A-21245, 1:5,000 dilution). […] Full lists of peptides queried by array analysis are in Supplementary Table S2.

[1] = test system: Active Motif #39161, anti-H3K9me3; experiment: Histone peptide microarray, Active Motif 39161; details: Active Motif 39161 (anti-H3K9me3) hits
CST 9733 (anti-H3K27me3) = experiment: Histone peptide microarray, CST 9733; details: histone peptide array signal normalized to the highest peptide average per subarray, hits; CST 9733 LOT:14 dilution 1:5,000
[2] = test system: Millipore #07-449, anti-H3K27me3; experiment: Histone peptide microarray, Millipore 07-449; details: Millipore 07-449 (anti-H3K27me3) hits, average signal per peptide
53BP1 TTD = experiment: Histone peptide microarray, 53BP1 TTD; details: 53BP1 TTD hits, average signal per peptide
Outline: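 Binding of protein or antibody to arrayed histone peptides read by AlexaFluor 647 fluorescence, with anti-GST primary (1:2,000) and labelled secondary (1:5,000) for GST-fused domain. Hybridisations in HEPES pH 7.5 buffer with 100 mM NaCl, 0.5% BSA and 0.1% NP-40; triple PBS-Tween washes between steps.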

CDYL2 chromo = target: T2, CDYL2 chromo (Homo sapiens, UniProt Q8N8U2); experiment: Histone peptide microarray, CDYL2 chromo; details: normalized histone peptide array signal, hits; hybridization with 1 M CDYL2 chromo (so in the source); two subarrays
T2 construct: 1-75; made in house; host or cells: E. coli BL21
T2 sequence (Q8N8U2 1-75): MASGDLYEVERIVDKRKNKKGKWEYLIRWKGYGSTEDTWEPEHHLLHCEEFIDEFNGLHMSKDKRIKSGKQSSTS
Protocol: as §1

[3] = test system: ABClonal #A2355, anti-H3K4me1; experiment: Histone peptide microarray, ABclonal A2355; details: Abclonal A2355 (anti-H3K4me1) hits
Protocol: as §1

[4] = test system: Abcam #ab8895, anti-H3K4me1; experiment: Histone peptide microarray, Abcam ab8895; details: Abcam ab8895 (anti-H3K4me1) hits, average signal per peptide

Substance	Avg Signal (MPP8 chromo)	Avg Signal [1]	Avg Signal (CST 9733 (anti-H3K27me3))	Avg Signal [2]	Avg Signal (53BP1 TTD)	Avg Signal (CDYL2 chromo)	Avg Signal [3]	Avg Signal [4]
Ac-APRKQLATK(Me3)AARKSAPATGG-Peg-K(Biot)-NH2 [Peptide H3.1K23me3]	0.09452	0.01355	5.2822e-5	0.005165				
Ac-APRKQLATKAARK(Me3)SAPSTGG-Peg-Biot [Peptide H3.3K27me3]		0.01689	1	0.2205	0.04567	0.1275		
Ac-SGRGKGGKGLGKGGAK(Ac)RHRK(Ac)VLR-Peg-Biot [Peptide H4K16acK20ac]		0.03564		0.001622		0.04591	0.000726	0.002797
AGGK(Ac)AGK(Ac)DSGK(Ac)AKAKAVSR-Peg-Biot [H2A.Z.2K4acK7acK11ac]		0.02451		0.003296		0.04723		
ARTKQTARK(Me)STGGKAPRKQL-K(Biot)-NH2 [Peptide H3.1K9me1]	0.4905	0.000221		0.001651	0.2555			0.4772
ARTK(Ac)QTARK(Me2)STGGK(Ac)APRK(Ac)QL-K(Biot)-NH2 [H3.1K4acK9me2K14acK18ac]	0.2405		3.787e-5	0.005667	0.5858			0.0002166
Ac-SGRGK(Me)GGK(Ac)GLGK(Me)GGAKRHRKVLR-Peg-Biot [H4K5me1K8acK12me1]	0.009322	0.03017		0.001936			0.01549	0.02853
Ac-APRKQLATKAARK(Me2)SAPSTGG-Peg-Biot [Peptide H3.3K27me2]			0.0115	0.003304	0.3374	0.08888		0.0005313
ARTKQTARK(Me3)pSTGGKAPRKQL-K(Biot)-NH2 [H3.1K9me3S10p]	0.04961	0.1411		0.03312	0.1329			0.1409
ARTK(Ac)QTARK(Me)STGGK(Ac)APRK(Ac)QL-K(Biot)-NH2 [H3.1K4acK9me1K14acK18ac]	0.07749			0.004673	0.1278			0.5059
ARTKQTAR(Me2a)K(Me)STGGKAPRKQL-K(Biot)-NH2 [H3.1R8me2aK9me1]	0.4258	0.00542			0.1501		0.006716	0.513
Ac-SGRGK(Me)GGK(Me)GLGK(Me)GGAKRHRKVLR-Peg-Biot [H4K5me1K8me1K12me1]		0.004623				0.4707	0.1176	0.06188
ARTKQTAR(Me2s)K(Me)STGGKAPRKQL-K(Biot)-NH2 [H3.1R8me2sK9me1]	0.1744	0.003577	0.01277		0.2791			0.3635
